Consider 1 compound from patent US20260240926A1, “METHOD OF MAKING A PROBIOTIC FERMENTED PRODUCT” (UNIVERSITY OF SOUTH FLORIDA, priority 2023, published 2026).

The series relates to C57BL/6 mice. Description: Chemotherapy (5-FU) induced dysbiosis model in C57BL/6 mice. Type of series: in vivo. The conditions noted are these: 5-FU alone. The procedure: Based on previous studies, a model of chemotherapy induced dysbiosis in C57BL/6 mice using 5-Fluorouracil (5-FU) chemotherapy was established. 5-FU accelerated body weight loss (FIG. 16A), reduced microbiome diversity (FIG. 16B), increased gut permeability (FIG. 16C), damaged intestinal villi in the ileum (FIG. 16D), and impaired cognitive function (FIG. 16E). […] It was determined where the PFM has more significant protective effects compared to non-fermented probiotics (same four strains suspended in saline, instead of fermented in milk).

Regarding `O=c1[nH]cc(F)c(=O)[nH]1` [5-FU, 5-Fluorouracil], the body weight loss entry was “accelerated”, the cognitive function entry is given as “impaired”, the “intestinal villi in the ileum” value is “damaged” and the microbiome diversity result was “reduced”.
